Assays:
[1] = biological target: A1 (h) (Homo sapiens, UniProt P30542); assay: competitive radioligand binding assay, A1 (h) (antagonist radioligand)
[2] = biological target: A2A (h) (Homo sapiens, UniProt P29274); assay: competitive radioligand binding assay, A2A (h) (agonist radioligand)
[3] = biological target: A3 (h) (Homo sapiens, UniProt P0DMS8); assay: competitive radioligand binding assay, A3 (h) (agonist radioligand)
[4] = test system: α1 (non-selective); assay: competitive radioligand binding assay, α1 (non-selective (antagonist radioligand)); conditions: 10 μM
[5] = test system: a2 (non-selective); assay: competitive radioligand binding assay, a2 (non-selective) (antagonist radioligand); conditions: 10 μM
[6] = test system: BZD (central); assay: competitive radioligand binding assay, BZD (central) (agonist radioligand); conditions: 10 μM
[7] = biological target: B1 (h) (Homo sapiens, UniProt P46663); assay: competitive radioligand binding assay, B1 (h) (agonist radioligand)
[8] = biological target: CB1 (h) (Homo sapiens, UniProt P21554); assay: competitive radioligand binding assay, CB1 (h) (agonist radioligand)
[9] = biological target: CB2 (h) (Homo sapiens, UniProt P34972); assay: competitive radioligand binding assay, CB2 (h) (agonist radioligand)
[10] = biological target: CCK2 (CCKB) (h) (Homo sapiens, UniProt P32239); assay: competitive radioligand binding assay, CCK2 (CCKB) (h) (agonist radioligand)
[11] = biological target: CRF1 (h) (Homo sapiens, UniProt P34998); assay: competitive radioligand binding assay, CRF1 (h) (agonist radioligand)
[12] = biological target: D2S (h) (Homo sapiens, UniProt P14416); assay: competitive radioligand binding assay, D2S (h) (antagonist radioligand)
[13] = biological target: D3 (h) (Homo sapiens, UniProt P35462); assay: competitive radioligand binding assay, D3 (h) (antagonist radioligand)
[14] = biological target: D4.4 (h) (Homo sapiens, UniProt P21917); assay: competitive radioligand binding assay, D4.4 (h) (antagonist radioligand)
[15] = test system: T1, GABA (non-selective) receptors; type: binding
T1 construct: other: 10 μM; GABA (non-selective) (agonist radioligand); activity towards GABA (non-selective) receptors (in words)

[16] = test system: AMPA; assay: competitive radioligand binding assay, AMPA (agonist radioligand); conditions: 10 μM
[17] = test system: NMDA; assay: competitive radioligand binding assay, NMDA (antagonist radioligand); conditions: 10 μM
[18] = biological target: H1 (h) (Homo sapiens, UniProt P35367); assay: competitive radioligand binding assay, H1 (h) (antagonist radioligand)
[19] = biological target: H3 (h) (Homo sapiens, UniProt Q9Y5N1); assay: competitive radioligand binding assay, H3 (h) (agonist radioligand)
[20] = test system: I2; assay: competitive radioligand binding assay, I2 (antagonist radioligand); conditions: 10 μM
[21] = biological target: MC4 (h) (Homo sapiens, UniProt P32245); assay: competitive radioligand binding assay, MC4 (h) (agonist radioligand)
[22] = biological target: MT1 (ML1A) (h) (Homo sapiens, UniProt P48039); assay: competitive radioligand binding assay, MT1 (ML1A) (h) (agonist radioligand)
[23] = test system: M (non0selective); assay: competitive radioligand binding assay, M (non0selective) (antagonist radioligand); conditions: 10 μM
[24] = test system: Y (non-selective); assay: competitive radioligand binding assay, Y (non-selective) (agonist radioligand); conditions: 10 μM
[25] = test system: opioid (non-selective); assay: competitive radioligand binding assay, opioid (non-selective) (antagonist radioligand); conditions: 10 μM
[26] = biological target: NOP (ORL1) (h) (Homo sapiens, UniProt P41146); assay: competitive radioligand binding assay, NOP (ORL1) (h) (agonist radioligand)
[27] = test system: PCP; assay: competitive radioligand binding assay, PCP (antagonist radioligand); conditions: 10 μM
[28] = biological target: EP2 (h) (Homo sapiens, UniProt P43116); assay: competitive radioligand binding assay, EP2 (h) (agonist radioligand)
[29] = test system: AR (h); assay: competitive radioligand binding assay, AR (h) (agonist radioligand); design: species or system human; conditions: 10 μM
[30] = biological target: TRH1 (h) (Homo sapiens, UniProt P34981); assay: competitive radioligand binding assay, TRH1 (h) (agonist radioligand)
[31] = biological target: V2 (h) (Homo sapiens, UniProt P30518); assay: competitive radioligand binding assay, V2 (h) (agonist radioligand)
[32] = test system: Ca2+ channel (L, dihydropyridine site); assay: competitive radioligand binding assay, Ca2+ channel (L, dihydropyridine site) (antagonist radioligand); conditions: 10 μM
[33] = test system: Cl− channel (GABA-gated); assay: competitive radioligand binding assay, Cl− channel (GABA-gated) (antagonist radioligand); conditions: 10 μM
[34] = test system: GABA transporter; assay: competitive radioligand binding assay, GABA transporter (antagonist radioligand); conditions: 10 μM
[35] = biological target: choline transporter (CHT1) (h) (Homo sapiens, UniProt Q9GZV3); assay: competitive radioligand binding assay, choline transporter (CHT1) (h) (antagonist radioligand)
[36] = biological target: 5-HT transporter (h) (Homo sapiens, UniProt P31645); assay: competitive radioligand binding assay, 5-HT transporter (h) (antagonist radioligand)
[37] = test system: LnCAP-Z2 tumors; assay: Prostate cancer xenograft model, SCID male mice bearing LnCAP-Z2 tumors; type: in vivo; conditions: for antitumor efficacy (in words): oral
Procedure: SCID male mice bearing LnCAP-Z2 tumors (mean volume˜160-190 mm^3) were treated daily by oral gavage with vehicle or drugs for 21 days. Individual tumor volume change by the end of the study. Percentage of change in individual tumor volumes as compared to the start of treatment.
FIG. 6. […] SCID male mice bearing LnCAP-Z2 tumors (mean volume˜160-190 mm^3) treated daily by oral gavage with vehicle or drugs for 21 days. Individual tumor volume change by the end of the study. Percentage of change in individual tumor volumes compared to the start of treatment.
FIG. 7. […] SCID male mice bearing LnCAP-Z2 tumors (mean volume˜160-190 mm^3) treated daily by oral gavage with vehicle or drugs for 21 days. (A)—Tumor weight by the end of the study. Mean±SEM are presented. […] (B)—PSA expression by the end of the study. Plasma samples were collected 24 hours after the last drug administration. Mean±SEM are presented.
The antitumor efficacy of (R)-1 was tested in a xenograft model of prostate cancer (FIGS. 6 and 7). Male immunodeficient mice harboring LnCAP-Z2 tumors were treated orally for 21 days with either vehicle or (R)-1 at 20 and 50 mg/kg once daily and at 20 mg/kg twice daily. […] Twenty-four hours after last treatment, blood samples were collected from all animals and used for measuring PSA expression and drug concentration. In addition, the concentration of drugs and Ki67 expression were measured in tumor samples.

Sequence of TRH1 (h) (P34981 whole entry): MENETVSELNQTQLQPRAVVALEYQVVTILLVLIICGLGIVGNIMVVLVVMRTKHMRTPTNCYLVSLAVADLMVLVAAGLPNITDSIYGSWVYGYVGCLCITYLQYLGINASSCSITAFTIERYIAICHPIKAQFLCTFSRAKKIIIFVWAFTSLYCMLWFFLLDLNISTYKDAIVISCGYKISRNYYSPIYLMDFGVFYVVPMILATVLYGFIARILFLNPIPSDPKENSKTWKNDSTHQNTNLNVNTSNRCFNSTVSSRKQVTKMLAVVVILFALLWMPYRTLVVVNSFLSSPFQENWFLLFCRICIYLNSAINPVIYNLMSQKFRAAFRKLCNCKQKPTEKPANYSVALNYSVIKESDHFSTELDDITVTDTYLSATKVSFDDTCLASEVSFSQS
Sequence of A2A (h) (P29274 whole entry): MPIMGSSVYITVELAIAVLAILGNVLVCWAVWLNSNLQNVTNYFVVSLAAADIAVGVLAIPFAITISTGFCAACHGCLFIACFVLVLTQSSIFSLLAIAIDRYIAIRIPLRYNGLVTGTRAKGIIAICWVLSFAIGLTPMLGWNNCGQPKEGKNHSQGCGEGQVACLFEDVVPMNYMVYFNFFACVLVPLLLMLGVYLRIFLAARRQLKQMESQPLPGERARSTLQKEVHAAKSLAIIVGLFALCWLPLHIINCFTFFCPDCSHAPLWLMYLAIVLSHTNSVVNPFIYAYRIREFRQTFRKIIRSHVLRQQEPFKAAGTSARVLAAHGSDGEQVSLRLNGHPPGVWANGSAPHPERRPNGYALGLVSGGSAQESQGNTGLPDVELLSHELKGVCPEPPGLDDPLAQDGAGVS
Sequence of D2S (h) (P14416 1-414 isoform P14416-2): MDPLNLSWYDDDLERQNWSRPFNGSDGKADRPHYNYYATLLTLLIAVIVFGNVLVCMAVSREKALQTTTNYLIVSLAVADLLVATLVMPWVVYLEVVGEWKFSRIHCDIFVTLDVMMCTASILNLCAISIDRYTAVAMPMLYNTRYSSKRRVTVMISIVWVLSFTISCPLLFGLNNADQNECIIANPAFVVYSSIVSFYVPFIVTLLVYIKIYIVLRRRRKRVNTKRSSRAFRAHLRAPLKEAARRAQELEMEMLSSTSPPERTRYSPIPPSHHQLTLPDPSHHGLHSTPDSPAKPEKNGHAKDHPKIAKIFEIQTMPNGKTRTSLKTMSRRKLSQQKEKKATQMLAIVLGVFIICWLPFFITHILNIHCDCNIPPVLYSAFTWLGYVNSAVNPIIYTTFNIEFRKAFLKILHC
Sequence of D4.4 (h) (P21917 whole entry): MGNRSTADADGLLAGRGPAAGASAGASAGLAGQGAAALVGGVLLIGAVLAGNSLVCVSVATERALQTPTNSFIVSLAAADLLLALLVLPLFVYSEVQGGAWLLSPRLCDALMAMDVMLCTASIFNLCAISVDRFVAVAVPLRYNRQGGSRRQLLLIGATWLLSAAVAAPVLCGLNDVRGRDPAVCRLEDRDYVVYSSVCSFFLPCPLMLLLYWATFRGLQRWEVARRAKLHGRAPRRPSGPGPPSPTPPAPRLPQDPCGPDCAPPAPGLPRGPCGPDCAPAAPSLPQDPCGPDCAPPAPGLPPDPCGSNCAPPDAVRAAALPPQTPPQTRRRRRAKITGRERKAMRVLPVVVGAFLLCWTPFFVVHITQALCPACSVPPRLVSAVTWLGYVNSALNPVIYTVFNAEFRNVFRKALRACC
Sequence of CB2 (h) (P34972 whole entry): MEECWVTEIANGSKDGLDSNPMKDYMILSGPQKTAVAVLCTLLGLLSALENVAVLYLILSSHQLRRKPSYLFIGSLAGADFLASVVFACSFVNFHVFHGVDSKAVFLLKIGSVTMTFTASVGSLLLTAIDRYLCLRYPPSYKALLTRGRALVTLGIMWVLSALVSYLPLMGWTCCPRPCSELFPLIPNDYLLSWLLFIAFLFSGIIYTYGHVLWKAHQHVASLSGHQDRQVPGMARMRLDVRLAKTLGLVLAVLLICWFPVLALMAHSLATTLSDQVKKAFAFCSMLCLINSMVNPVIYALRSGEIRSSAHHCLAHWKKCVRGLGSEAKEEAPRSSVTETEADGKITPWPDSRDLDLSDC
Sequence of CCK2 (CCKB) (h) (P32239 whole entry): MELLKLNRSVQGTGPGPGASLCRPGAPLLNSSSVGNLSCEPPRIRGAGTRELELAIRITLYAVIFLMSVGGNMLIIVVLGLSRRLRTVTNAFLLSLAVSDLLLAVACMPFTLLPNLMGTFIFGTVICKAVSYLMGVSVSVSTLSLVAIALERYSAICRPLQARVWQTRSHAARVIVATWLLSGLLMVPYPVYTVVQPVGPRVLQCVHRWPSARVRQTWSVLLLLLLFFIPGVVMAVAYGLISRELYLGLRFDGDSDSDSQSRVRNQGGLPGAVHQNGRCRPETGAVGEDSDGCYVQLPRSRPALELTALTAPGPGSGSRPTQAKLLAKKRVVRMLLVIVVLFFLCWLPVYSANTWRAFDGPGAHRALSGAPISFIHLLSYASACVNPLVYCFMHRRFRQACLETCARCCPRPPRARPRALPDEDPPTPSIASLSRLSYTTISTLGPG
Sequence of H3 (h) (Q9Y5N1 whole entry): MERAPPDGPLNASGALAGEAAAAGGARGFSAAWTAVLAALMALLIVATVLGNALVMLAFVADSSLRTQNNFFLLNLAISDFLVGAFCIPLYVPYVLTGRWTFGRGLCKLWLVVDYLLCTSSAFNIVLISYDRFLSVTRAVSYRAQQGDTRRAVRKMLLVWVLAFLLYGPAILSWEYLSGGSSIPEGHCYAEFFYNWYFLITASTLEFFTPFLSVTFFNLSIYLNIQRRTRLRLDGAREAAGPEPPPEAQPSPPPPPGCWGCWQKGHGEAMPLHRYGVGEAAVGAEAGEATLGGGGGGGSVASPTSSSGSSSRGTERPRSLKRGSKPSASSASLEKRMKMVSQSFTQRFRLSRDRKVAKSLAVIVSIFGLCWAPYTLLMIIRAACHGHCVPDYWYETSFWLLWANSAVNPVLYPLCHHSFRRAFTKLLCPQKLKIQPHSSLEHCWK
Sequence of V2 (h) (P30518 whole entry): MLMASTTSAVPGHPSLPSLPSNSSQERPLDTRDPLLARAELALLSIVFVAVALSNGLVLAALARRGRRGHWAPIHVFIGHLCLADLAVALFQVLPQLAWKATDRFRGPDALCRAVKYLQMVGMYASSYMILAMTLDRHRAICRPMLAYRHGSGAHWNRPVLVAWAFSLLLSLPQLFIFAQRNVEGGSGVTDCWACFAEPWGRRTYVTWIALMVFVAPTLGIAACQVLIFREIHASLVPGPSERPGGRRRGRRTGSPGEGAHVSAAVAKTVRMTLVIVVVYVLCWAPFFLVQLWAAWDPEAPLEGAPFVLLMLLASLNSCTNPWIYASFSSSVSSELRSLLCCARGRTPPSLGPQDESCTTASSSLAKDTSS
Sequence of CB1 (h) (P21554 whole entry): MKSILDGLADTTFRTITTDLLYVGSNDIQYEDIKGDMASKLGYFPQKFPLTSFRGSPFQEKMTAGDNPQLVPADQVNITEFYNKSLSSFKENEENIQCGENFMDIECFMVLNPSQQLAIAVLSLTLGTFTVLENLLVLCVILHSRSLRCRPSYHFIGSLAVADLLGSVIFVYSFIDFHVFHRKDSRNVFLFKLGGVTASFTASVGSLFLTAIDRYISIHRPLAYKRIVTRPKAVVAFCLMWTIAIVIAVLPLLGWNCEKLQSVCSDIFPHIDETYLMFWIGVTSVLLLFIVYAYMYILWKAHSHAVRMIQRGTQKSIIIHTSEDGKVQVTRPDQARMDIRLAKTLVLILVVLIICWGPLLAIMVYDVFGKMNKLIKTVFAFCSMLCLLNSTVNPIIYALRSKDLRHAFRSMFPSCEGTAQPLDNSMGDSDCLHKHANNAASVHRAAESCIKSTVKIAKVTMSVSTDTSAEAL
Sequence of MT1 (ML1A) (h) (P48039 whole entry): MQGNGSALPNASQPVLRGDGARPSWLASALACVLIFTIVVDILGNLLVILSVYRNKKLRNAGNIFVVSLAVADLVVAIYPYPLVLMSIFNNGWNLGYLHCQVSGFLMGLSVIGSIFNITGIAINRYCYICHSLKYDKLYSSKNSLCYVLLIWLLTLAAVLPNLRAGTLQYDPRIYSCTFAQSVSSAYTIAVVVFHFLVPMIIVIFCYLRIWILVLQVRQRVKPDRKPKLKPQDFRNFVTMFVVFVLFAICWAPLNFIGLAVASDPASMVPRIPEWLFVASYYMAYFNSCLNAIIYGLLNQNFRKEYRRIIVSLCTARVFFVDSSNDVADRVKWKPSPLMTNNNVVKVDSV
Sequence of 5-HT transporter (h) (P31645 whole entry): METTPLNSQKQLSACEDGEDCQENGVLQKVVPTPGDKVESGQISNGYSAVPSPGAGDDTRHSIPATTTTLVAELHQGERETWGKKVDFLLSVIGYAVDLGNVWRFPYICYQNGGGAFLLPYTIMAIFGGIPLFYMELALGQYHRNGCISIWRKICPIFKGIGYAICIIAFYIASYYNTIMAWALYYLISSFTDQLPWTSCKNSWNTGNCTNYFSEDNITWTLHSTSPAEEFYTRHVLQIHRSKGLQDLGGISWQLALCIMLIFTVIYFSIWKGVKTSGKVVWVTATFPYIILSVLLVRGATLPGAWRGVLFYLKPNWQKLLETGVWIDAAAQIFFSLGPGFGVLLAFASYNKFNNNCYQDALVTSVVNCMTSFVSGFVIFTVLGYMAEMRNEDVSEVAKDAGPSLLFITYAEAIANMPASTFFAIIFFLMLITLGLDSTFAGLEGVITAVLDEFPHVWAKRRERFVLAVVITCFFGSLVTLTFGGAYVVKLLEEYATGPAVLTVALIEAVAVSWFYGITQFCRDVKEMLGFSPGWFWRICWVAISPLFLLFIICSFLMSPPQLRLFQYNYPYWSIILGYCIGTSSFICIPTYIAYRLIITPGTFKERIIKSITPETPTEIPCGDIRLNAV

SMILES: CNC(=O)c1ccc(N2C(=S)N(c3ccc(C#N)c(C(F)(F)F)c3)C(=O)[C@]23CCOC3)cc1F [(R)-1, 4-[(R)-3-(4-cyano-3-trifluoromethyl-phenyl)-4-oxo-2-thioxo-7-oxa-1,3-diaza-spiro[4.4]non-1-yl]-2-fluoro-N-methyl-benzamide]
- inhibition at 10 µM [1]: -11.8%
- inhibition at 10 µM [2]: 8.1%
- inhibition at 10 µM [3]: -4.9%
- % Inhibition [4]: 0.7%
- % Inhibition [5]: −3.7%
- % Inhibition [6]: −16.6%
- inhibition at 10 µM [7]: 0.5%
- inhibition at 10 µM [8]: -4.5%
- inhibition at 10 µM [9]: 9.1%
- inhibition at 10 µM [10]: -2.5%
- inhibition at 10 µM [11]: -0.1%
- inhibition at 10 µM [12]: -8.1%
- inhibition at 10 µM [13]: -4.8%
- inhibition at 10 µM [14]: -4.7%
- % Inhibition ([15]; 10 μM, GABA (non-selective) (agonist radioligand)): 7.1%
- activity towards GABA (non-selective) receptors (in words) ([15]; Table 1, Target 24): practically inactive
- % Inhibition [16]: −23.0%
- % Inhibition [17]: 2.0%
- inhibition at 10 µM [18]: 0.7%
- inhibition at 10 µM [19]: -13%
- % Inhibition [20]: 10.1%
- inhibition at 10 µM [21]: -3.1%
- inhibition at 10 µM [22]: -6.2%
- % Inhibition [23]: −8.9%
- % Inhibition [24]: −16.4%
- % Inhibition [25]: 19.3%
- inhibition at 10 µM [26]: -1.7%
- % Inhibition [27]: 0.5%
- inhibition at 10 µM [28]: 0%
- % Inhibition [29]: 96.3%
- inhibition at 10 µM [30]: 3.4%
- inhibition at 10 µM [31]: 1.5%
- % Inhibition [32]: −2.5%
- % Inhibition [33]: 42.4%
- % Inhibition [34]: 9.7%
- inhibition at 10 µM [35]: 9.7%
- inhibition at 10 µM [36]: 43.5%
- tumors regressed ([37]; 20 mg/kg twice daily, oral gavage, 21 days): 4 of 8
- effect on individual tumors (in words) ([37]; analysis of individual tumors, 21 days oral): stimulate tumor regression
- antitumor efficacy (in words) ([37]; once daily at 20 or 50 mg/kg, 21 days): comparable with Ia administered once daily at 10 mg/kg
- antitumor efficacy (in words) ([37]; twice daily at 20 mg/kg, 21 days): highest antitumor efficacy

Source: patent publication US9073874B2, “Cyclic N,N′-diarylthioureas and N,N′-diarylureas-androgen receptor antagonists, anticancer agent, method for preparation and use thereof” (priority 2010, dated 2015)
